Molecular target: T1, human PAD4 (Homo sapiens, UniProt Q9UM07)
T1 construct: human PAD4 (NM_012387), A2P663, was PCR amplified; His-SUMO (N, cleaved yes); made in house; host or cells: E. coli BL21(DE3)
Assay: In vitro PAD4 BAEE biochemical assay
Settings: human PAD4, BAEE substrate; 5 nM PAD4, 2 mM calcium chloride, 3 mM BAEE; geometric mean of multiple experiments
Summary of the method: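 Tag-free recombinant hPAD4 (5 nM), 2 mM CaCl2, 3 mM BAEE, 50 mM MOPS pH 7.6, 2 mM DTT; 30 min compound preincubation, 2 h reaction, all 25 °C. EDTA quench; ammonia read via o-phthalaldehyde amine coupling, 1 h.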

T1 sequence (Q9UM07 2-663): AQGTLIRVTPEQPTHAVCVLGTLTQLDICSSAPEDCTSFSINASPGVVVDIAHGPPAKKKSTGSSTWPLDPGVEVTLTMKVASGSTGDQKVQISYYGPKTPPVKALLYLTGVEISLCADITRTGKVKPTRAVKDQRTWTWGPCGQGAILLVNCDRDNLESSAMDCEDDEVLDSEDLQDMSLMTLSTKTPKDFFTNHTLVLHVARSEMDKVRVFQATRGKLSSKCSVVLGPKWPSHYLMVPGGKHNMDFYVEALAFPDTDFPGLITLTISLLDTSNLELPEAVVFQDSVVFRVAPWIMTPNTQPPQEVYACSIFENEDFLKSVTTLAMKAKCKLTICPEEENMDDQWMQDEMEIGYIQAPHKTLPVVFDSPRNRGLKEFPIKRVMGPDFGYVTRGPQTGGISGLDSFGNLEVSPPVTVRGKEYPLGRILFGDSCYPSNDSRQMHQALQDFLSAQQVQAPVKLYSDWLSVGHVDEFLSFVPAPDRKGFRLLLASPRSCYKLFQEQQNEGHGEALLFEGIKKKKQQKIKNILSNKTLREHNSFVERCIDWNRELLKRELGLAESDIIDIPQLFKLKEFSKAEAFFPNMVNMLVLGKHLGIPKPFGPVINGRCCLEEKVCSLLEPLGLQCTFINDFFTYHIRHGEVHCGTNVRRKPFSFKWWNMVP

Structure (SMILES)	IC50
CSc1cc(C(=O)N2CCC[C@@H](N)C2)cc2nc(-c3cc4ccc(N(C(F)F)S(C)(=O)=O)nc4n3CC3CC3)c(C)n12 [Example 387, ~{N}-[2-[7-[(3~{R})-3-aminopiperidine-1-carbonyl]-3-methyl-5-methylsulfanylimidazo[1,2-a]pyridin-2-yl]-1-(cyclopropylmethyl)pyrrolo [2,3-b]pyridin-6-yl]-~{N}-(difluoromethyl) methanesulfonamide]	779 nM
COc1cc(C(=O)N2CCC[C@@H](N)C2)cc2nc(-c3cc4ccc([C@@H](C)NC(=O)[C@H]5[C@@H]6CC(F)(F)C[C@@H]65)nc4n3CC3CC3)c(C)n12 [Example 9, (1~{R},5~{S})-~{N}-[(1~{R})-1-[2-[7-[(3~{R})-3-aminopiperidine-1-carbonyl]-5-methoxy-3-methylimidazo[1,2-a]pyridin-2-yl]-1-(cyclopropylmethyl)pyrrolo[2,3-b]pyridin-6-yl]ethyl]-3,3-difluorobicyclo[3.1.0] hexane-6-carboxamide]	28 nM
COc1cc(C(=O)N2[C@H]3CC[C@@H]2[C@H](N)C3)cc2nc(-c3cc4ccc([C@@H](C)NC(=O)N[C@H](C)c5cccnc5)nc4n3CC3CC3)c(C3CC3)n12 [Example 218, 1-[(1~{R})-1-[2-[7-[(1~{R},2~{R},4~{S})-2-amino-7-azabicyclo[2.2.1]heptane-7-carbonyl]-3-cyclopropyl-5-methoxyimidazo [1,2-a]pyridin-2-yl]-1-(cyclopropylmethyl)pyrrolo [2,3-b]pyridin-6-yl]ethyl]-3-[(1~{R})-1-pyridin-3-ylethyl]urea]	55.5 nM
COc1cc(C(=O)N2[C@H]3CC[C@@H]2[C@H](N)C3)cc2nc(-c3cc4ccc([C@@H](C)NC(=O)N5CC(OC(F)F)C5)nc4n3CC3CC3)c(C)n12 [Example 205, ~{N}-[(1~{R})-1-[2-[7-[(1~{R},2~{R},4~{S})-2-amino-7-azabicyclo[2.2.1]heptane-7-carbonyl]-5-methoxy-3-methylimidazo [1,2-a]pyridin-2-yl]-1-(cyclopropylmethyl)pyrrolo [2,3-b]pyridin-6-yl]ethyl]-3-(difluoromethoxy)azetidine-1-carboxamide]	34.8 nM
COc1cc(C(=O)N2[C@H]3CC[C@@H]2[C@H](N)C3)cc2nc(-c3cc4ccc([C@@H](C)NC(=O)Nc5ccc(F)cc5F)nc4n3CC3CC3)c(C)n12 [Example 198, 1-[(1~{R})-1-[2-[7-[(1~{R},2~{R},4~{S})-2-amino-7-azabicyclo[2.2.1]heptane-7-carbonyl]-5-methoxy-3-methylimidazo [1,2-a]pyridin-2-yl]-1-(cyclopropylmethyl)pyrrolo [2,3-b]pyridin-6-yl]ethyl]-3-(2,4-difluorophenyl)urea]	185 nM

The next lines start with the values.

IC50	Structure (SMILES)
361 nM	COc1cc(C(=O)N2[C@H]3CC[C@@H]2[C@H](N)C3)cc2nc(-c3cc4ccc(N5c6ccccc6CS5(=O)=O)nc4n3CC3CC3)c(C)n12 [Example 467, [(1~{R},2~{R},4~{S})-2-amino-7-azabicyclo [2.2.1]heptan-7-yl]-[2-[1-(cyclopropylmethyl)-6-(2,2-dioxo-3~{H}-2,1-benzothiazol-1-yl)pyrrolo [2,3-b]pyridin-2-yl]-5-methoxy-3-methylimidazo [1,2-a]pyridin-7-yl] methanone]
943 nM	COc1cc(C(=O)N2CCC[C@@H](N)C2)cc2nc(-c3cc4ccc(N(C(F)F)S(C)(=O)=O)nc4n3CC3CC3)c(CC(C)C)n12 [Example 430, ~{N}-[2-[7-[(3~{R})-3-aminopiperidine-1-carbonyl]-5-methoxy-3-(2-methylpropyl)imidazo [1,2-a]pyridin-2-yl]-1-(cyclopropylmethyl)pyrrolo [2,3-b]pyridin-6-yl]-~{N}-(difluoromethyl) methanesulfonamide]

Source: patent publication US12240862B2, “Inhibitors of peptidylarginine deiminases” (Gilead Sciences, Inc., priority 2020, dated 2025)
